Laboratory results published in patent publication US8802597B2, “Herbicidal pyrimidines” (E I du Pont de Nemours and Company, priority 2003, dated 2014).
Where two headings read alike, the source gives them in different places.

Key:
Assay type in all cases: in vivo
[1] = tested on: Surinam grass (Brachiaria decumbens); assay: Test B pre/postemergence; settings: Urochloa decumbens; for pest or weed control at 125 g/ha: 125 g ai/ha; for pest or weed control at 62 g/ha: 62 g ai/ha
Outline: (§1)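 Pre: compound (non-phytotoxic solvent + surfactant) applied to freshly planted seeds. Post: same formulation sprayed on 2–18 cm plants, 1- to 4-leaf. Readout: visual control rating 0–100 vs controls, 13–15 d, greenhouse.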

[2] = tested on: barnyardgrass (Echinochloa crus-galli); assay: Test B pre/postemergence; settings: Echinochloa crus-galli, scale 0 to 100 (0 no effect, 100 complete control); for pest or weed control at 62 g/ha: 62 g ai/ha; for pest or weed control at 125 g/ha: 125 g ai/ha
Outline: as §1

[3] = tested on: cocklebur (Xanthium strumarium); assay: Test B pre/postemergence; settings: for pest or weed control at 125 g/ha: 125 g ai/ha
Outline: as §1

corn (Zea mays) = assay: Test B pre/postemergence; settings: Zea mays
Outline: as §1

[4] = tested on: crabgrass (Digitaria sanguinalis); assay: Test B pre/postemergence; settings: Digitaria sanguinalis; for pest or weed control at 62 g/ha: 62 g ai/ha; for pest or weed control at 125 g/ha: 125 g ai/ha
Outline: as §1

[5] = tested on: giant foxtail (Setaria faberii); assay: Test B pre/postemergence; settings: Setaria faberi; for pest or weed control at 125 g/ha: 125 g ai/ha; for pest or weed control at 62 g/ha: 62 g ai/ha
Outline: as §1

[6] = tested on: lambsquarters (Chenopodium album); assay: Test B pre/postemergence; settings: Chenopodium album; for pest or weed control at 62 g/ha: 62 g ai/ha; for pest or weed control at 125 g/ha: 125 g ai/ha
Outline: as §1

[7] = tested on: morningglory (Ipomoea coccinea); assay: Test B pre/postemergence; settings: Ipomoea; for pest or weed control at 62 g/ha: 62 g ai/ha; for pest or weed control at 125 g/ha: 125 g ai/ha
Outline: as §1

[8] = tested on: pigweed (Amaranthus retroflexus); assay: Test B pre/postemergence; settings: Amaranthus retroflexus; for pest or weed control at 62 g/ha: 62 g ai/ha; for pest or weed control at 125 g/ha: 125 g ai/ha
Outline: as §1

[9] = tested on: velvetleaf (Abutilon theophrasti); assay: Test B pre/postemergence; settings: Abutilon theophrasti; for pest or weed control at 62 g/ha: 62 g ai/ha; for pest or weed control at 125 g/ha: 125 g ai/ha
Outline: as §1

[10] = tested on: wheat (Triticum aestivum); assay: Test B pre/postemergence; settings: Triticum aestivum, scale 0 to 100 (0 no effect, 100 complete control); for plant injury at 62 g/ha: 62 g ai/ha; for plant injury at 125 g/ha: 125 g ai/ha
Outline: as §1

[11] = tested on: blackgrass (Alopecurus myosuroides); assay: Test B postemergence; settings: Alopecurus myosuroides, post-emergence, scale 0 to 100 (0 no effect, 100 complete control), read-out: Blackgrass plant response rating
Outline: as §1

wild oat (Avena fatua) = assay: Test B postemergence; settings: Avena fatua, post-emergence, scale 0 to 100 (0 no effect, 100 complete control), read-out: Oat, Wild plant response rating
Outline: as §1

[12] = tested on: barnyardgrass (Echinochloa crus-galli); assay: Test B flooded paddy test; settings: Flood, scale 0 to 100
Outline: (§2)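 Plants were grown to the 2-leaf stage before treatment, then kept in a greenhouse for 13 to 15 days. Injury was rated visually against untreated controls on a 0 to 100 scale, where 0 is no effect and 100 is complete control.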

[13] = tested on: duck salad (Heteranthera limosa); assay: Test B flooded paddy test; settings: Heteranthera limosa, Flood, scale 0 to 100, read-out: Plant response rating, Ducksalad
Outline: as §2

rice (Oryza sativa) = assay: Test B flooded paddy test; settings: Flood, scale 0 to 100
Outline: as §2

[14] = tested on: umbrella sedge (Cyperus difformis); assay: Test B flooded paddy test; settings: Flood, scale 0 to 100
Outline: as §2

[15] = post-emergence, Postemergence, scale 0 to 100 (0 no effect, 100 complete control), read-out: Surinam Grass plant response rating
[16] = post-emergence, Postemergence, read-out: Barnyardgrass plant response rating
[17] = pre-emergence, Preemergence, read-out: Plant response rating, Barnyardgrass
[18] = post-emergence, Postemergence, scale 0 to 100 (0 no effect, 100 complete control), read-out: Crabgrass plant response rating
[19] = post-emergence, Postemergence, scale 0 to 100 (0 no effect, 100 complete control), read-out: Foxtail, Giant plant response rating
[20] = post-emergence, Postemergence, scale 0 to 100 (0 no effect, 100 complete control), read-out: Lambsquarters plant response rating
[21] = post-emergence, Postemergence, scale 0 to 100 (0 no effect, 100 complete control), read-out: Morningglory plant response rating
[22] = post-emergence, Postemergence, scale 0 to 100 (0 no effect, 100 complete control), read-out: Pigweed plant response rating
[23] = post-emergence, Postemergence, scale 0 to 100 (0 no effect, 100 complete control), read-out: Velvetleaf plant response rating
[24] = post-emergence, Postemergence, read-out: Wheat plant response rating
[25] = pre-emergence, Preemergence, read-out: Plant response rating, Wheat

Nc1nc(C2CC2)nc(C(=O)[O-])c1Cl.[Na+] [Compound 77, 6-amino-5-chloro-2-cyclopropyl-4-pyrimidinecarboxylic acid monosodium salt] showed a pest or weed control at 125 g/ha [1, 15] of 80%, a pest or weed control at 62 g/ha [1, 15] of 70% and a pest or weed control at 125 g/ha ([1]; pre-emergence, Preemergence, scale 0 to 100 (0 no effect, 100 complete control), read-out: Plant response rating, Surinam Grass) of 90%. It also gave a pest or weed control at 62 g/ha ([1]; pre-emergence, Preemergence, scale 0 to 100, 0 no effect, 100 complete control, read-out: Plant response rating, Surinam Grass) of 60%, a pest or weed control at 62 g/ha [2, 16] of 60% and a pest or weed control at 125 g/ha [2, 16] of 90%. For the same molecule, the pest or weed control at 62 g/ha [2, 17] was 70%, the pest or weed control at 125 g/ha [2, 17] was 90% and the “Cocklebur plant response rating” value ([3]; Postemergence, 62 g ai/ha, scale 0 to 100 (0 no effect, 100 complete control)) was 70. The pest or weed control at 125 g/ha ([3]; Xanthium strumarium, post-emergence, Postemergence, scale 0 to 100 (0 no effect, 100 complete control), read-out: Cocklebur plant response rating) was 100%, the pest or weed control at 62 g/ha ([3]; Xanthium strumarium, pre-emergence, Preemergence, 62 g ai/ha, scale 0 to 100, 0 no effect, 100 complete control, read-out: Plant response rating, Cocklebur) was 80% and the pest or weed control at 125 g/ha ([3]; Xanthium strumarium, pre-emergence, Preemergence, scale 0 to 100 (0 no effect, 100 complete control), read-out: Plant response rating, Cocklebur) was 100%. The plant injury at 62 g/ha (corn (Zea mays); post-emergence, Postemergence, 62 g ai/ha, scale 0 to 100 (0 no effect, 100 complete control), read-out: Corn plant response rating) was 30%, the plant injury at 125 g/ha (corn (Zea mays); post-emergence, Postemergence, 125 g ai/ha, scale 0 to 100 (0 no effect, 100 complete control), read-out: Corn plant response rating) was 80% and the Corn plant response rating (crop injury, 0 = no effect, 100 = complete kill) at 62 g/ha (corn (Zea mays); pre-emergence, Preemergence, 62 g ai/ha, scale 0 to 100, 0 no effect, 100 complete control) was 70%. It also gave a Corn plant response rating (crop injury, 0 = no effect, 100 = complete kill) at 125 g/ha (corn (Zea mays); pre-emergence, Preemergence, 125 g ai/ha, scale 0 to 100 (0 no effect, 100 complete control)) of 80%, a pest or weed control at 62 g/ha [4, 18] of 70% and a pest or weed control at 125 g/ha [4, 18] of 80%. The pest or weed control at 62 g/ha ([4]; pre-emergence, Preemergence, scale 0 to 100, 0 no effect, 100 complete control, read-out: Plant response rating, Crabgrass) was 80%, the pest or weed control at 125 g/ha ([4]; pre-emergence, Preemergence, scale 0 to 100 (0 no effect, 100 complete control), read-out: Plant response rating, Crabgrass) was 90% and the pest or weed control at 125 g/ha [5, 19] was 80%. For the same molecule, the pest or weed control at 62 g/ha [5, 19] was 70%, the pest or weed control at 125 g/ha ([5]; pre-emergence, Preemergence, scale 0 to 100 (0 no effect, 100 complete control), read-out: Plant response rating, Foxtail, Giant) was 90% and the pest or weed control at 62 g/ha ([5]; pre-emergence, Preemergence, scale 0 to 100, 0 no effect, 100 complete control, read-out: Plant response rating, Foxtail, Giant) was 70%. The pest or weed control at 62 g/ha [6, 20] was 100%, the pest or weed control at 125 g/ha [6, 20] was 100% and the pest or weed control at 62 g/ha ([6]; pre-emergence, Preemergence, scale 0 to 100, 0 no effect, 100 complete control, read-out: Plant response rating, Lambsquarters) was 100%. For the same molecule, the pest or weed control at 125 g/ha ([6]; pre-emergence, Preemergence, scale 0 to 100 (0 no effect, 100 complete control), read-out: Plant response rating, Lambsquarters) was 100%, the pest or weed control at 62 g/ha [7, 21] was 100% and the pest or weed control at 125 g/ha [7, 21] was 100%. It also gave a pest or weed control at 62 g/ha ([7]; pre-emergence, Preemergence, scale 0 to 100, 0 no effect, 100 complete control, read-out: Plant response rating, Morningglory) of 100%, a pest or weed control at 125 g/ha ([7]; pre-emergence, Preemergence, scale 0 to 100 (0 no effect, 100 complete control), read-out: Plant response rating, Morningglory) of 100% and a pest or weed control at 62 g/ha [8, 22] of 90%. The pest or weed control at 125 g/ha [8, 22] was 100%, the pest or weed control at 62 g/ha ([8]; pre-emergence, Preemergence, scale 0 to 100, 0 no effect, 100 complete control, read-out: Plant response rating, Pigweed) was 100% and the pest or weed control at 125 g/ha ([8]; pre-emergence, Preemergence, scale 0 to 100 (0 no effect, 100 complete control), read-out: Plant response rating, Pigweed) was 100%. The pest or weed control at 62 g/ha [9, 23] was 80%, the pest or weed control at 125 g/ha [9, 23] was 90% and the pest or weed control at 62 g/ha ([9]; pre-emergence, Preemergence, scale 0 to 100, 0 no effect, 100 complete control, read-out: Plant response rating, Velvetleaf) was 80%. For the same molecule, the pest or weed control at 125 g/ha ([9]; pre-emergence, Preemergence, scale 0 to 100 (0 no effect, 100 complete control), read-out: Plant response rating, Velvetleaf) was 100%, the plant injury at 62 g/ha [10, 24] was 50% and the plant injury at 125 g/ha [10, 24] was 60%. The plant injury at 62 g/ha [10, 25] was 70%, the plant injury at 125 g/ha [10, 25] was 70% and the pest or weed control at 62 g/ha ([11]; 62 g ai/ha) was 50%. The pest or weed control at 125 g/ha ([11]; 125 g ai/ha) was 60%, the pest or weed control at 62 g/ha (wild oat (Avena fatua); 62 g ai/ha) was 50% and the pest or weed control at 125 g/ha (wild oat (Avena fatua); 125 g ai/ha) was 60%. The pest or weed control at 500 g/ha ([12]; Echinochloa crus-galli, 500 g ai/ha, read-out: Plant response rating, Barnyardgrass) was 60%, the “Plant response rating, Barnyardgrass” value ([12]; 125 g ai/ha) was 0 and the pest or weed control at 125 g/ha ([13]; 125 g ai/ha) was 40%. The pest or weed control at 500 g/ha ([13]; 500 g ai/ha) was 80%, the “Plant response rating, Rice” value (rice (Oryza sativa); 125 g ai/ha) was 0 and the plant injury at 500 g/ha (rice (Oryza sativa); Oryza sativa, 500 g ai/ha, read-out: Plant response rating, Rice) was 50%. The “Plant response rating, Sedge, Umbrella” value ([14]; 125 g ai/ha) was 0 and the “Plant response rating, Sedge, Umbrella” value ([14]; 500 g ai/ha) was 40.
